{"source": "patent US20230416196A1", "about": "“DIMER OF BIGUANIDINES AND THEIR THERAPEUTIC USES” (INSTITUT CURIE, priority 2020, published 2023)", "key": {"αKG in activated MDM": {"test_system": "αKG in activated MDM", "experiment": "α-Ketoglutarate (αKG) fluorometric quantification in activated MDM", "assay_type": "cell-based, human", "conditions": "Met 10 mM, LCC-12 10 μM; FIG. 3B", "protocol": "Cell culture. Peripheral blood samples were collected from distinct healthy donors (Etablissement Français du Sang). Pan monocytes were isolated by negative magnetic sorting using microbeads according to the manufacturer's instructions (Miltenyi Biotec, 130-096-537), and cultured in RPMI 1640 supplemented with glutamine (Thermo Fisher Scientific, 61870010), 10% fetal bovine serum and exposed to granulocyte-macrophage colony-stimulating factor (GM-CSF, Miltenyi Biotec, 130-093-866, 100 ng/mL) to induce differentiation into macrophages (MDM). […]\nα-Ketoglutarate (αKG) measurements. αKG was quantified using a fluorometric assay (Abcam, ab83431) according to the manufacturer's protocol. […] Cells were subsequently washed with ice-cold 1×PBS and counted. […] Samples were centrifuged at 13000× g for 15 min and the supernatants collected. αKG levels were measured using a standard curve and a control to subtract pyruvate background levels. Fluorescence intensities (ex. 535 nm; em. 590 nm) were recorded using a Perkin Elmer Wallac 1420 Victor2 Microplate Reader, and data were normalized against cell number. […]"}, "monocytes": {"test_system": "monocytes", "experiment": "Activation of monocytes (CD25, CD80 flow cytometry)", "assay_type": "cell-based, human", "conditions": "LCC-12 10 μM, 24 h, LPS; FIG. 6D", "protocol": "Monocytes. Peripheral blood samples were collected from healthy donors (Etablissement Français du Sang). Pan monocytes were isolated by negative magnetic sorting using microbeads according to the manufacturer's instructions (Miltenyi Biotec, 130-096-537), and cultured in RPMI 1640 supplemented with glutamine, 10% fetal bovine serum. Monocytes were treated with lipopolysaccharides (LPS, 100 ng/mL, 24 h) to generate activated monocytes and were co-treated with LCC-12 (in-house, 10 μM, 24 h). The activation status of the monocytes was assessed by measuring CD25 and CD80 surface markers by flow cytometry."}, "[1]": {"test_system": "MCF7, FC1242 and DU-145 cells", "experiment": "Cell viability in epithelial versus mesenchymal state (TGF-β or OSM induced EMT)", "assay_type": "cell-based, human, mouse", "conditions": "EMT induced with TGF-β or OSM; FIG. 7", "protocol": "Cell viability assay (IC50). Cell viability assay was carried out by plating 1000 cells/well in 96-well plates. Cells were treated for 72 h in a range between to 25 nM and […] using serial dilutions. The inventors followed the manufacturer's protocol. In brief, CellTiter-Blue® reagent (G8081, Promega) was added after 72 h treatment and cells were incubated for 3 h before recording fluorescence intensities (λex. 560/20 nm; λem. 590/10 nm) using a Perkin Elmer Wallac 1420 Victor2 Microplate Reader.\nCell culture. MCF7 (ATCC) cells, DU-145 (ATCC) cells and FC1245 cells were cultured in Dulbecco's Modified Eagle Medium GlutaMAX (DMEM, ThermoFisher Scientific, 61965059) supplemented with 10% Fetal Bovine Serum (FBS, Gibco, 10270-106) and Penicillin-Streptomycin mixture (BioWhittaker/Lonza, DE17-602E) unless stated otherwise. Primary lung circulating tumor cells (Celprogen, 36107-34CTC, Lot 219411) were grown using stem cell complete media (Celprogen, M36102-29PS) until the third passage. Circulating cancer cells were grown in stem cell ECM T75-flasks (Celprogen, E36102-29-T75) and ECM 6-well plates (Celprogen, E36102-29-6Well). […]"}}}
{"molecule": "N=C(N)NC(=N)NCCCCCCCCCCCCNC(=N)NC(=N)N", "note": "[LCC-12, lipophilic copper clamp C12]", "values": [{"measurement": "increase of αKG in activated MDM", "setting": "αKG in activated MDM", "value": "more potent than Met at a dose 1000-fold lower"}, {"measurement": "activation of monocytes", "setting": "monocytes", "value": "decreases the activation"}, {"measurement": "IC50-values in mesenchymal state compared to epithelial counterpart", "setting": "[1]", "value": "lower IC50-values in cells in the mesenchymal state compared to the epithelial counterpart"}]}
